# Reference: US20260125417A1, “GLUCOCORTICOID RECEPTOR AGONISTS” (ELI LILLY AND COMPANY, priority 2022, published 2026)
# Target: T1, GR-LBD (Homo sapiens, UniProt P04150)
# T1 construct: purchased Life Technologies A15899
# T1 sequence (P04150 524-758 limits assumed): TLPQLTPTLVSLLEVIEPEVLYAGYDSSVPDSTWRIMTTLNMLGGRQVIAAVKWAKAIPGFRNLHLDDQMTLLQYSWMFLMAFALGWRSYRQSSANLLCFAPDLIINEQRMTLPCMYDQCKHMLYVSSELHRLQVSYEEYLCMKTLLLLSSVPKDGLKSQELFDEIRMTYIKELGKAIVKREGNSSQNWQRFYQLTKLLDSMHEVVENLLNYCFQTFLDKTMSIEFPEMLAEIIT
# Test: hGR CoActivator Recruitment Assay (LanthaScreen TR-Fret GR Coactivator Assay)
# Type: biochemical
# Conditions: Fluorescein-SRC1-4 recruitment to GR-LBD, 10-point dilution, top concentration 200 nM, positive control 4 μM dexamethasone
# Description: Example 4. hGR CoActivator Recruitment Assay The activity of glucocorticoid compounds was measured using the LanthaScreen TR-Fret GR Coactivator Assay from Life Technologies (A15899). The compounds were acoustically transferred to an assay plate in a 3-fold 10-point serial dilution with atop concentration of 200 nM. Ten microliters of a 2× solution of GR-LBD was added to the compound plate and incubated for 10 min. Then ten microliters of a 2× solution of Fluoresein-SRC1-4 and Tb labelled anti-GST antibody were added to the plate. The plate was incubated in the dark for two hours and then read on an Envision plate reader, with excitation at 340 nm and emission at 520 nm (Fluorescein) and 490 nm (Terbium). The emission ratio of 520/490 was analyzed in Genedata. To obtain percent activity, the data was compared to a negative control of DMSO and positive control of 4 μM dexamethasone.
row,Structure (SMILES),EC50 [nM]
1,[2H]C([2H])([2H])Oc1ccc(OCc2cccc(N)c2)c(F)c1[C@H]1O[C@@H]2C[C@H]3[C@@H]4CCC5=CC(=O)C=C[C@]5(C)[C@H]4[C@@H](O)C[C@]3(C)[C@]2(C(=O)CO)O1 [Compound No. 1],1.93
2,"COc1ccc(CCc2ccc(N)cc2)c(F)c1[C@H]1O[C@@H]2C[C@H]3[C@@H]4CCC5=CC(=O)C=C[C@]5(C)[C@H]4[C@@H](O)C[C@]3(C)[C@]2(C(=O)CO)O1 [compound 3, (6aR,6bS,7S,8aS,8bS,10S,11aR,12aS,12bS)-10-(3-(4-aminophenethyl)-2-fluoro-6-methoxyphenyl)-7-hydroxy-8b-(2-hydroxyacetyl)-6a,8a-dimethyl-1,2,6a,6b,7,8,8a,8b,11a,12,12a,12b-dodecahydro-4H-naphtho[2′,1′:4,5]indeno[1,2-d][1,3]dioxol-4-one]",1.65
3,"COc1ccc(OCCc2cccc(N)c2)c(F)c1[C@H]1O[C@@H]2C[C@H]3[C@@H]4CCC5=CC(=O)C=C[C@]5(C)[C@H]4[C@@H](O)C[C@]3(C)[C@]2(C(=O)CO)O1 [compound 5, (6aR,6bS,7S,8aS,8bS,10S,11aR,12aS,12bS)-10-(3-(3-aminophenethoxy)-2-fluoro-6-methoxyphenyl)-7-hydroxy-8b-(2-hydroxyacetyl)-6a,8a-dimethyl-1,2,6a,6b,7,8,8a,8b,11a,12,12a,12b-dodecahydro-4H-naphtho[2′,1′:4,5]indeno[1,2-d][1,3]dioxol-4-one]",2.25

# Now those with a lower EC50, led by results:
row,EC50 [nM],Structure (SMILES)
1,1.52,"CCc1ccc(OCc2cccc(N)c2)c(F)c1[C@H]1O[C@@H]2C[C@H]3[C@@H]4CCC5=CC(=O)C=C[C@]5(C)[C@H]4[C@@H](O)C[C@]3(C)[C@]2(C(=O)CO)O1 [compound 2, (6aR,6bS,7S,8aS,8bS,10S,11aR,12aS,12bS)-10-(3-((3-aminobenzyl)oxy)-6-ethyl-2-fluorophenyl)-7-hydroxy-8b-(2-hydroxyacetyl)-6a,8a-dimethyl-1,2,6a,6b,7,8,8a,8b,11a,12,12a,12b-dodecahydro-4H-naphtho[2′,1′:4,5]indeno[1,2-d][1,3]dioxol-4-one]"
2,1.48,"COc1ccc(OCCc2ccc(N)cc2)c(F)c1[C@H]1O[C@@H]2C[C@H]3[C@@H]4CCC5=CC(=O)C=C[C@]5(C)[C@H]4[C@@H](O)C[C@]3(C)[C@]2(C(=O)CO)O1 [compound 4, (6aR,6bS,7S,8aS,8bS,10S,11aR,12aS,12bS)-10-(3-(4-aminophenethoxy)-2-fluoro-6-methoxyphenyl)-7-hydroxy-8b-(2-hydroxyacetyl)-6a,8a-dimethyl-1,2,6a,6b,7,8,8a,8b,11a,12,12a,12b-dodecahydro-4H-naphtho[2′,1′:4,5]indeno[1,2-d][1,3]dioxol-4-one]"
